Data from patent publication EP2077274A1, “Synthetic analogs of human beta-defensins having antimicrobial, antiviral and chemotactic activity” (Ceinge Biotecnologie Avanzate s.c. a r.l., priority 2008, dated 2009).
No end group written: not given here.

Legend:
[1] = tested on: Enterococcus faecalis ATCC 29212; assay: Colony-forming unit (CFU) assay of antibacterial activity with NaCl dependence; type: cell-based; details: 200 mM NaCl compared to absence of salt
Description: (§1) Colony-forming unit (CFU) assay of the antibacterial activity of the peptides against P.aeruginosa ATCC (American Type Culture Collection, Manassas, VA, USA) 27853, Enterococcus faecalis ATCC 29212 and Escherichia coli ATCC 25922 was performed. The strains were grown in aerobic conditions in tryptic soy broth (Difco Laboratories, Detroit, MI, USA) at 37°C. Cells from exponential-phase cultures were centrifuged, washed and suspended to a density of 1 x 10^5 CFU/mL in sterile 10 mM potassium phosphate buffer, pH 7.4, and incubated in the presence of the peptides. The incubation time was 2 h at 37°C. […] For salt dependence assay, NaCl in a range of concentrations potentially present in the airway surface fluid of normal subjects and CF patients (33), i.e., 0, 50, 100 and 200 mM NaCl, were included in the incubation buffer. The cells were then diluted serially in the same buffer, spread on tryptone-yeast (Difco Laboratories) plates and the colonies were counted after 18 h at 37°C. Each assay was performed in triplicate. Bactericidal activity (mean and SD of three assays) is expressed as the ratio between colonies counted and the number of colonies on a control plate.

[2] = tested on: Escherichia coli ATCC 25922; assay: as above; type: cell-based; details: 200 mM NaCl compared to absence of salt
Description: as §1

P.aeruginosa ATCC 27853 = assay: as above; type: cell-based
Description: as §1

monocytes = assay: Chemotaxis assay (leukocyte migration, calcein fluorescence); type: cell-based, human
Description: (§2) Preparation of leukocytes-Monocytes and neutrophils were isolated as described in the StemSep Cell Technical Manual (Stem Cell Technologies, Vancouver, Canada). Briefly, to obtain neutrophils, buffy coats were diluted 1:20 in NH4Cl supplemented with 2 mM EDTA and incubated on ice for 20 min. Cell suspensions were centrifuged for 10 min at 600 X g at room temperature with the brake off and washed three times with phosphate buffered saline (PBS) supplemented with 2% foetal bovine serum and 2 mM EDTA. Cell viability was assessed by analysis of light scatter properties, and cell count was performed using a logical gate strategy based on Trucount tubes (Becton-Dickinson, San Jose, CA, USA). Neutrophils were purified from lysed buffy coats using StemSep negative selection system. To this purpose, 100x10^6 mononuclear cells from lysed buffy coats were incubated with 100 µL of custom antibody cocktail for human granulocytes enrichment (Stem Cell Technologies) for 45 min on ice. In addition, cell suspensions were incubated with 60 µL of magnetic colloid for 30 minutes on ice. Finally, the samples were run through a 0.3-inch column matrix in a negative selection system in which the unwanted cells were immunomagnetically labelled and bound to the magnetic column. Neutrophils, after the separation, were collected in the column flowthrough without antibody bound to their surface. In order to obtain monocytes, human buffy coats were layered over a Ficoll-Paque density gradient and spun at 600 X g for 30 min with the brake off. The mononuclear cell-rich fractions were washed three times with PBS supplemented with 2% foetal bovine serum (FBS) and 2 mM EDTA. Cell viability was assessed by analysis of light scatter properties, and cell count was performed using a logical gate strategy based on Trucount tubes (Becton-Dickinson). A custom antibody cocktail for human monocyte enrichment (Stem Cells Technologies) was used for immunomagnetic negative selection of monocytes. Mononuclear cells were incubated as above described for neutrophils. Both neutrophils and monocytes were resuspended in 5.0 mL of RPMI-1640 (Sigma-Aldrich, St Louis, MO, USA) without phenol red containing 10% heat-treated FBS. Calcein AM (Molecular Probes, Eugene, OR, USA) was added to the cell suspensions (5.0 mL) at a concentration of 5 µg/mL and the cells were incubated for 30 min at 37°C. Cell suspensions were washed twice with PBS and then resuspended in RPMI-FBS to the desired concentration.
(§3) Measurement of leukocytes migration-The chemotaxis assay of monocytes and neutrophils (90-95% of purity) was performed in 96-well disposable chemotaxis chambers (Neuroprobe, Gaithersburg, MD, USA) using polyvinyl-pyrrolidone-free polycarbonate membranes with an […] pore size for monocytes and with a […] pore size for neutrophils. Chemotaxis was measured by fluorescence detection, using the calcein fluorescence signal. The fluorescence was read in a microplate fluorescence reader (Victor 3 1420 Multilabel Counter, Perkin Elmer) with excitation/emission wave-length settings of 485/530 nm. We calculated the migration index as the ratio between the sample mean fluorescence (after subtraction of the negative control mean fluorescence)/positive control mean fluorescence. Each assay was performed in quadruplicate.

neutrophils = assay: as above; type: cell-based, human
Description: as §2, §3

HSV-1 = HSV-1 infectivity plaque assay on Vero cell monolayers (co-exposure, virus pre-treatment, cell pre-exposure); type: cell-based; details: for % of infectivity: peptide 20 µM, mean and SD of 3 replicates
Description: Vero cells were grown in Dulbecco's modified Eagle's medium (DMEM) supplemented with 10% foetal calf serum. HSV-1 carrying a IacZ gene driven by the cytomegalovirus (CMV) IE-1 promoter to express beta-galactosidase was propagated as described (33). Peptides were dissolved in DMEM with serum and used at different concentrations. All experiments were conducted in parallel with scrambled peptides and no-peptide controls. […] Non-penetrated viruses were inactivated by citrate buffer at pH 3.0 after the 45 min incubation with cells at 37°C. The cells were then incubated for 48 h at 37°C in DMEM supplemented with carboxymethylcellulose (CMC). Monolayers were fixed, stained with 5-bromo-4-chloro-3-indolyl-beta-D-galactopyranoside (X-gal) and plaque numbers were scored. Experiments were performed in triplicate and the percentage of inhibition was calculated with respect to no-peptide control experiments. ii) For "virus pre-treatment" experiments, approximately 2 x 10^4 plaque forming units (PFU) of HSV-1 were incubated in the presence of 20 µM of peptides for 45 min at 37°C, then titrated on Vero cell monolayers. iii) For "cell pre-exposure" experiments, Vero cells were incubated with 20 µM of peptides for 30 min at 4°C. Peptides were removed, and cells were washed with phosphate-buffered saline before being infected with serial dilutions of HSV-1 and incubated for 45 min at 37°C.
Monolayers were exposed to different concentrations (10, 50, 100, 250 and 500 µM) of each peptide for 24 h, and cell viability was evaluated with the LDH assay. There was no significant difference between the viability of cells exposed to the peptides and that of cells exposed to control (data not shown). Thus, we evaluated the antiviral activity of wild type peptides and their analogs in: co-exposure experiments (cell + virus + peptide at zero time); virus pre-treatment (virus + peptide incubation before cell infection); and cell pre-exposure (cell + peptide incubation before virus infection). This would allow to evaluate if, and in which phase, the peptides could inhibit the virus infectivity.
For co-exposure experiments, we incubated the peptides on the monolayers of Vero cells together with the virus inoculum for 45 min before low pH treatment. The reduced form of wild-type hBD1 and hBD3 and analogs 1C, 1 N, 3C, 3N were used in all subsequent experiments. […] No control (peptide excluded) inhibited HSV-1 infectivity under similar experimental conditions.

GIINTLQKYYCRVRGGRCAVLSCLPKEEQIGKCSTRGRKCCRRKK-OH (cysteines drawn unpaired) [hBD3 wt, reference compound]
antibacterial activity, effect of NaCl [1]: significantly inhibited
antibacterial activity, effect of NaCl [2]: significantly inhibited
antibacterial activity, effect of NaCl (P.aeruginosa ATCC 27853; peptide 2.5 µM, 50 mM NaCl versus 0 mM NaCl): unaffected
antibacterial activity, effect of NaCl (P.aeruginosa ATCC 27853; peptide 2.5 µM, 100 mM NaCl versus 0 mM NaCl, p<0.01): slightly inhibited
antibacterial activity, effect of NaCl (P.aeruginosa ATCC 27853; peptide 2.5 µM, 200 mM NaCl versus 0 mM NaCl, p<0.001): greatly inhibited
antibacterial activity, effect of NaCl (P.aeruginosa ATCC 27853; peptide 12.5 µM, 200 mM NaCl versus 0 mM NaCl, p<0.001): strongly inhibited
chemotactic activity, effect of NaCl (monocytes; 200 mM NaCl): comparable to that obtained at 100 mM NaCl
chemotactic activity, effect of NaCl (monocytes; NaCl between 100 and 150 mM, p<0.001): significantly increased
chemotactic activity compared to wild-type hBD1 (monocytes; peptide 1.25 µM): significantly higher
chemotactic activity, effect of NaCl (neutrophils; NaCl from 100 to 150 mM, p<0.001): significantly reduced
chemotactic activity compared to wild-type hBD1 (neutrophils; peptide 1.25 µM): significantly lower activity
% of infectivity (HSV-1; cell pre-exposure): 14.5±2.3%
% of infectivity (HSV-1; co-exposure): 23.4±2.5%
inhibition of HSV infectivity (HSV-1; co-exposure, peptide 50 µM, reduced form): 100%
% of infectivity (HSV-1; virus pre-incubation): 45±1.5%
